From ChEMBL document CHEMBL1275483, “Staphylococcus aureus cell wall stress stimulon gene-lacZ fusion strains: potential for use in screening for cell wall-active antimicrobials” (2008) come the findings set out here.

For test [1], the system named is Staphylococcus aureus. In words: Induction of Ppbp2::lacZ gene expression in Staphylococcus aureus SH1000 at 0.3 ug/ml after 0.5 hrs by beta-galactosidase reporter gene assay relative to untreated control. It counts as functional, organism-based.
Test [2] concerns Staphylococcus aureus. The test is described as follows: Induction of Ppbp2::lacZ gene expression in Staphylococcus aureus SH1000 at 8 ug/ml after 2 hrs by beta-galactosidase reporter gene assay relative to untreated control. It counts as functional, organism-based. A general note: Reporter assays use an easily measured gene product as a stand-in for the process of interest.
The subject of test [3] is Staphylococcus aureus. The test is described as follows: Induction of PvraSr::lacZ gene expression in Staphylococcus aureus SH1000 at 8 ug/ml after 2 hrs by beta-galactosidase reporter gene assay relative to untreated control. It counts as functional, organism-based.
The test system of test [4] is Staphylococcus aureus. In words: Induction of PtcaA::lacZ gene expression in Staphylococcus aureus SH1000 at 8 ug/ml after 2 hrs by beta-galactosidase reporter gene assay relative to untreated control. It counts as functional, organism-based.
Test [5] concerns Staphylococcus aureus. The test is described as follows: Induction of PlytR::lacZ gene expression in Staphylococcus aureus SH1000 at 8 ug/ml after 2 hrs by beta-galactosidase reporter gene assay relative to untreated control. It counts as functional, organism-based.
For test [6], the system named is Staphylococcus aureus. The test is described as follows: Induction of PsgtB::lacZ gene expression in Staphylococcus aureus SH1000 at 8 ug/ml after 2 hrs by beta-galactosidase reporter gene assay relative to untreated control. It counts as functional, organism-based.
Test [7] deals with Staphylococcus aureus. The test is described as follows: Antimicrobial activity against beta-lactamase producing Staphylococcus aureus SH1000. It counts as functional.
In test [8] the test system is Staphylococcus aureus. The test is described as follows: Induction of Ppbp2::lacZ gene expression in Staphylococcus aureus SH1000 at 0.05 ug/ml after 2 hrs by beta-galactosidase reporter gene assay relative to untreated control. It counts as functional.
The test system of test [9] is Staphylococcus aureus. In words: Induction of PvraSr::lacZ gene expression in Staphylococcus aureus SH1000 at 0.05 ug/ml after 2 hrs by beta-galactosidase reporter gene assay relative to untreated control. It counts as functional.
Test [10] relates to Staphylococcus aureus. The test is described as follows: Induction of PtcaA::lacZ gene expression in Staphylococcus aureus SH1000 at 0.05 ug/ml after 2 hrs by beta-galactosidase reporter gene assay relative to untreated control. It counts as functional.
For test [11], the system named is Staphylococcus aureus. In words: Induction of PlytR::lacZ gene expression in Staphylococcus aureus SH1000 at 0.05 ug/ml after 2 hrs by beta-galactosidase reporter gene assay relative to untreated control. It counts as functional.
For test [12], the system named is Staphylococcus aureus. In words: Induction of PsgtB::lacZ gene expression in Staphylococcus aureus SH1000 at 0.05 ug/ml after 2 hrs by beta-galactosidase reporter gene assay relative to untreated control. It counts as functional.
The test system of test [13] is Staphylococcus aureus. The test is described as follows: Induction of Ppbp2::lacZ gene expression in Staphylococcus aureus SH1000 at 3 ug/ml after 2 hrs by beta-galactosidase reporter gene assay relative to untreated control. It counts as functional.
The test system of test [14] is Staphylococcus aureus. The test is described as follows: Induction of PvraSr::lacZ gene expression in Staphylococcus aureus SH1000 at 3 ug/ml after 2 hrs by beta-galactosidase reporter gene assay relative to untreated control. It counts as functional.
Test [15] has as its system Staphylococcus aureus. In words: Induction of PtcaA::lacZ gene expression in Staphylococcus aureus SH1000 at 3 ug/ml after 2 hrs by beta-galactosidase reporter gene assay relative to untreated control. It counts as functional.
In test [16] the test system is Staphylococcus aureus. In words: Induction of PlytR::lacZ gene expression in Staphylococcus aureus SH1000 at 3 ug/ml after 2 hrs by beta-galactosidase reporter gene assay relative to untreated control. It counts as functional.
Test [17] has as its system Staphylococcus aureus. The test is described as follows: Induction of PsgtB::lacZ gene expression in Staphylococcus aureus SH1000 at 3 ug/ml after 2 hrs by beta-galactosidase reporter gene assay relative to untreated control. It counts as functional.
For test [18], the system named is Staphylococcus aureus. In words: Induction of Ppbp2::lacZ gene expression in Staphylococcus aureus SH1000 at 2 ug/ml after 2 hrs by beta-galactosidase reporter gene assay relative to untreated control. It counts as functional.
Test [19] concerns Staphylococcus aureus. In words: Induction of PvraSr::lacZ gene expression in Staphylococcus aureus SH1000 at 2 ug/ml after 2 hrs by beta-galactosidase reporter gene assay relative to untreated control. It counts as functional.
For test [20], the system named is Staphylococcus aureus. In words: Induction of PtcaA::lacZ gene expression in Staphylococcus aureus SH1000 at 2 ug/ml after 2 hrs by beta-galactosidase reporter gene assay relative to untreated control. It counts as functional.
Test [21] deals with Staphylococcus aureus. In words: Induction of PlytR::lacZ gene expression in Staphylococcus aureus SH1000 at 2 ug/ml after 2 hrs by beta-galactosidase reporter gene assay relative to untreated control. It counts as functional.
In test [22] the test system is Staphylococcus aureus. In words: Induction of PsgtB::lacZ gene expression in Staphylococcus aureus SH1000 at 2 ug/ml after 2 hrs by beta-galactosidase reporter gene assay relative to untreated control. It counts as functional.
For test [23], the system named is Staphylococcus aureus. The test is described as follows: Induction of Ppbp2::lacZ gene expression in Staphylococcus aureus SH1000 at 1 ug/ml after 2 hrs by beta-galactosidase reporter gene assay relative to untreated control. It counts as functional.
The test system of test [24] is Staphylococcus aureus. The test is described as follows: Induction of PvraSr::lacZ gene expression in Staphylococcus aureus SH1000 at 1 ug/ml after 2 hrs by beta-galactosidase reporter gene assay relative to untreated control. It counts as functional.
The subject of test [25] is Staphylococcus aureus. The test is described as follows: Induction of PtcaA::lacZ gene expression in Staphylococcus aureus SH1000 at 1 ug/ml after 2 hrs by beta-galactosidase reporter gene assay relative to untreated control. It counts as functional.
In test [26] the test system is Staphylococcus aureus. The test is described as follows: Induction of PlytR::lacZ gene expression in Staphylococcus aureus SH1000 at 1 ug/ml after 2 hrs by beta-galactosidase reporter gene assay relative to untreated control. It counts as functional.
The subject of test [27] is Staphylococcus aureus. The test is described as follows: Induction of PsgtB::lacZ gene expression in Staphylococcus aureus SH1000 at 1 ug/ml after 2 hrs by beta-galactosidase reporter gene assay relative to untreated control. It counts as functional.

Values after ≈ are worked out from the molar mass of the structure shown. Active and inactive are the calls of the source.

One may read the MIC as the smallest concentration in the dilution series that meets the test's criterion for growth inhibition. A high value points to a need for much substance. Turning to `Cc1onc(-c2ccccc2)c1C(=O)N[C@@H]1C(=O)N2[C@@H]1SC(C)(C)[C@@H]2C(=O)O` [OXACILLIN], the outcome in test [1], in [2], in [3], in test [4], in test [5] and in [6] was Active. The same molecule had a minimum inhibitory concentration (MIC) in [7] of 1 µg/mL (≈ 2.49 µM).

Turning to `CO[C@H]1/C=C/O[C@@]2(C)Oc3c(C)c(O)c4c(O)c(c(/C=N/N5CCN(C)CC5)c(O)c4c3C2=O)NC(=O)/C(C)=C\C=C\[C@H](C)[C@H](O)[C@@H](C)[C@@H](O)[C@@H](C)[C@H](OC(C)=O)[C@@H]1C` [RIFAMPIN], the “fold change (FC)” value in test [8] is listed as 1.9; in [9], 1.2; in test [10], 0.99; in [11], 0.98; in [12], 1.19. The MIC in [7] turned out to be 0.05 µg/mL (≈ 0.0608 µM).

Regarding `CN[C@@H]1[C@H](O[C@H]2[C@H](O[C@H]3[C@H](O)[C@@H](O)[C@H](N=C(N)N)[C@@H](O)[C@@H]3N=C(N)N)O[C@@H](C)[C@]2(O)C=O)O[C@@H](CO)[C@H](O)[C@H]1O` [STREPTOMYCIN], the “fold change (FC)” value in [13] worked out at 0.3; in test [14], 0.96; in [15], 0.79; in test [16] it was 0.7; in [17], 0.41. The molecule also yielded a minimum inhibitory concentration (MIC) in test [7] of 1.5 µg/mL (≈ 2.58 µM).

With `CN(C)[C@@H]1C(O)=C(C(N)=O)C(=O)[C@@]2(O)C(O)=C3C(=O)c4c(O)cccc4[C@@](C)(O)[C@H]3C[C@@H]12` [TETRACYCLINE], the “fold change (FC)” value in test [18] is reported as 0.52; in test [19], 0.52; in test [20], 0.53; in test [21], 0.5; in [22] it was 0.4. The molecule further showed an MIC in [7] of 0.5 µg/mL (≈ 1.13 µM).

With `COc1cc(Cc2cnc(N)nc2N)cc(OC)c1OC` [TRIMETHOPRIM], the “fold change (FC)” value in [23] is 0.88; in test [24], 0.9; in [25] it was 1.24; in test [26], 0.92; in test [27], 1.19.
